Source: publication PMC3898733 (ACS nano, 2013)

System: Factor VII
Assay: In vivo Factor VII silencing
Conditions: for knock down of coagulation Factor VII: as stated in the abstract, dose not printed there; for activity in decreasing Factor VII expression: nanoparticles decorated with scrambled peptide, three days post injection

Row | Substance | knock down of coagulation Factor VII | reduction of Factor VII expression (peptide decorated nanoparticles with Factor VII siRNA, tail vein, 5 mg/kg siRNA, blood three days post-injection, n=5) | activity in decreasing Factor VII expression (5 mg/kg siRNA)
1 | CWLCRALIKRIQAMIP [compound 5] | 90% | 50% | 
2 | KRCRGWRQKMCLW |  |  | did not exhibit any activity
3 | LRGYEGHRCGILALLDLACTKHANCLPCTQPS |  |  | did not exhibit any activity
4 | MLRIAIRAWLCIPQCK |  |  | did not exhibit any activity
5 | lactoferricin | 90% |  | 
